Format in all cases: in vivo
The test system of assay [1] is adult unfed cat fleas (Ctenocephalides felis). Nature of the assay: Ctenocephalides felis oral test. As to conditions: 48 h, read-out: activity (mortality). Summed up:
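About 20 adult unfed fleas fed through parafilm on cattle blood containing compound (DMSO stock diluted in blood), blood held at 37 °C and fleas at room temperature. Mortality (%) scored after 2 days.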

The subject of assay [2] is Aedes aegypti strain MONHEIM. Briefly: Aedes aegypti test (AEDSAE surface treatment & contact assay). To be noted: 24 hours after contact, read-out: efficacy (mortality); for mortality at 4 mg/m2: surface concentration 4 mg/m^2, exposure 30 minutes; for mortality at 20 mg/m2: surface concentration 20 mg/m^2, exposure 30 minutes. The method in brief: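 Percent mortality was read 24 h after adult MONHEIM mosquitoes were held for 30 min on a tile treated with compound. Compound applied from acetone solution (2 mg/ml) containing 2000 ppm rapeseed oil methyl ester, after evaporation.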

Assay [3] relates to adult engorged female ticks (Rhipicephalus microplus). Briefly: Rhipicephalus (Boophilus) microplus injection test. As to conditions: 168 h, egg deposition after 7 days, read-out: activity (efficacy: infertile eggs); for pest or weed control at 4 pg: application rate 4 pg/animal; for pest or weed control at 0.02 mg: application rate 20 μg/animal. Summed up: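 Compound in DMSO (10 mg per 0.5 mL, then diluted with DMSO to test concentration); 1 μL injected into the abdomen of each of five engorged females, then held in a climate chamber. Fertile egg deposition checked at 7 days; efficacy 100% = all eggs infertile, 0% = all fertile.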

The test system of assay [4] is larvae of the banded cucumber beetle (Diabrotica balteata). Briefly: Diabrotica balteata spray test. As to conditions: 168 h, after 7 days, read-out: activity (efficacy: seedlings grown); for pest or weed control at 100 g/ha: application rate 100 g/ha (=32 pg/well); for pest or weed control at 500 g/ha: application rate 500 g/ha (=160 pg/well). The method in brief: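 Read-out is % efficacy at day 7, 0% meaning no seedling growth and 100% growth equal to uninfested untreated controls. Test solutions (acetone/DMF concentrate diluted with water carrying 1000 ppm emulsifier) were sprayed onto 1-day-germinated wheat seeds, 5 per well, before infestation with 10-20 larvae.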

Assay [5] concerns Blattella germanica strain PAULINIA
Nature of the assay: whole plant or invertebrate. As to conditions: read-out: efficacy (mortality). How it is done:
Blattella germanica Test (BLTTGE Surface Treatment & Contact Assay)
(§1) Solvent: Aceton+2000 ppm rapeseed oil methyl ester (RME)
In order to produce a sufficient, active ingredient containing solution it is necessary to solve the test compound in the solvent-mix (acetone at 2 mg/ml/RME 2000 ppm). This solution is pipetted onto a glazed tile and after evaporation of the acetone, adult animals of the species Blattella germanica strain PAULINIA are placed onto the dried surface. The exposure time is 30 minutes.
Mortality in percent (%) is determined 24 hours after contact of the insects to the treated surface. 100% mortality means that all tested insects are dead, whereas 0% means that no insect died.

The test system of assay [6] is larvae of the southern green stink bug (Nezara viridula). Nature of the assay: Nezara viridula spray test. To be noted: 96 h, after 4 days; for mortality at 100 g/ha: application rate 100 g/ha. The method in brief: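 Larva-infested barley (Hordeum vulgare) plants received a spray of test solution prepared from an acetone/DMF concentrate diluted in emulsifier-containing water (1000 ppm). Percent kill read 4 days later; 0% means no stink bugs dead.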

Assay [7] relates to adult cat fleas (Ctenocephalides felis). Nature of the assay: Ctenocephalides felis in-vitro contact test, adult cat flea. As to conditions: application rate 5 μg/cm^2 (=500 g/ha), after 48 hours, read-out: activity (efficacy: fleas dead or moribund). The method in brief:
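Efficacy, as % of fleas dead or moribund, was read 48 h after 5-10 adult cat fleas were confined in glass tubes whose walls carried dried compound film (900 ppm, […]). Fleas failing to escape upward from a 45-50° C plate within 5 min counted as dead or moribund.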

Assay [8] has as its system green peach aphid (Myzus persicae). Briefly: Myzus persicae oral test. To be noted: 120 h, application rate 4 ppm, after 5 days. The method in brief: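 Readout: % mortality at day 5, where 100% = all aphids dead and 0% = none dead. Feeding via parafilm membrane over compound in IPL41 medium (33%+15% sugar); mixed-age population. Stock in acetone (1:100 w/w), water-diluted.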

Assay [9] concerns Anopheles funestus strain FUMOZ-R. Briefly: Anopheles funestus test (ANPHFU surface treatment & contact assay). As to conditions: 24 hours after contact, read-out: efficacy (mortality); for mortality at 4 mg/m2: surface concentration 4 mg/m^2, exposure 30 minutes; for mortality at 20 mg/m2: surface concentration 20 mg/m^2, exposure 30 minutes. Summed up: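 Compound dissolved in acetone at 2 mg/ml with 2000 ppm RME, pipetted onto glazed tile; acetone evaporated. Adult FUMOZ-R mosquitoes exposed to dried surface for 30 min. Percent mortality scored 24 h after contact.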

In assay [10] the test system is green peach aphid (Myzus persicae). Briefly: Myzus persicae spray test. As to conditions: 120 h, application rate 500 g/ha, after 5 days. The method in brief: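 Chinese cabbage leaf disks carrying all instars of M. persicae sprayed with compound in acetone/DMF, diluted in water with 1000 ppm alkylarylpolyglycol ether emulsifier. Percent mortality scored after 5 days (100% = all aphids killed).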

For assay [11], the system named is Culex quinquefasciatus strain P00. Nature of the assay: Culex quinquefasciatus test (CULXFA surface treatment & contact assay). To be noted: 24 hours after contact, read-out: efficacy (mortality). As for the experimental part: Culex quinquefasciatus Test (CULXFA Surface Treatment & Contact Assay)
as §1
In order to produce a sufficient, active ingredient containing solution it is necessary to solve the test compound in the solvent-mix (acetone at 2 mg/ml/RME 2 000 ppm). This solution is pipetted onto a glazed tile and after evaporation of the acetone, adult mosquitoes of the species Culex quinquefasciatus strain P00 are placed onto the dried surface. The exposure time is 30 minutes. Mortality in percent (%) is determined 24 hours after contact of the insects to the treated surface. 100% mortality means that all tested insects are dead, whereas 0% means that no insect died.

The test system of assay [12] is adult brown dog ticks (Rhipicephalus sanguineus). Briefly: Rhipicephalus sanguineus in-vitro contact test, adult brown dog ticks. To be noted: after 48 hours, read-out: activity (efficacy: ticks dead or moribund); for pest or weed control at 100 g/ha: application rate 1 pg/cm^2 (=100 g/ha). The method in brief: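 Efficacy is % of adult ticks dead or moribund 48 h after confinement at room temperature in tubes wall-coated from acetone (5 μg/cm² at 900 ppm). Scoring by heat challenge at 45-50 °C up to 5 min; immotile or uncoordinated ticks failing to climb count as affected.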

The test system of assay [13] is two spotted spidermite (Tetranychus urticae). Nature of the assay: Tetranychus urticae spray test OP-resistant. To be noted: 144 h, after 6 days. As for the experimental part: Tetranychus urticae—Spray Test OP-Resistant
Solvent: 78.0 parts by weight acetone • 1.5 parts by weight dimethylformamide
Emulsifier: alkylarylpolyglycol ether
To produce a suitable preparation of active compound, 1 part by weight of active compound is mixed with the stated amount of solvents and is diluted with water, containing an emulsifier concentration of 1000 ppm, to the desired concentration. Further test concentrations are prepared by dilution with emulsifier containing water.
French bean (Phaseolus vulgaris) leaf disks infected with all instars of the two spotted spidermite (Tetranychus urticae), are sprayed with a preparation of the active ingredient of the desired concentration.
After 6 days mortality in % is determined. 100% means all spider mites have been killed and 0% means none of the spider mites have been killed.

In assay [14] the test system is Rhipicephalus microplus larvae (strain Parkhurst, resistant against synthetic pyrethroids). Briefly: Rhipicephalus (Boophilus) microplus in-vitro contact test, larval cattle tick. As to conditions: after 48 hours, read-out: activity (efficacy: larvae dead or moribund). The method in brief:
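Larvae (20-50 per tube) exposed to dry compound film on glass tube walls, 5 μg/cm^2 at 900 ppm, applied from acetone. After 48 h at 27° C./85% RH, tubes tapped and negative geotaxis scored; efficacy as percent dead or moribund larvae.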

In assay [15] the test system is fall armyworm larvae (Spodoptera frugiperda). Nature of the assay: Spodoptera frugiperda spray test. As to conditions: 168 h, read-out: activity (mortality). Summed up: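 Larvae of fall armyworm placed on dried maize leaf sections previously sprayed with emulsified compound (acetone/DMF solvent, water with 1000 ppm emulsifier). Percent of caterpillars killed recorded on day 7, 0–100% scale.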

As a reminder, the mortality is the share of the test organisms that died. Take `CC(NC(=O)c1cc(Cl)cc(S(C)(=O)=O)c1)c1nc(Br)nn1-c1ncccn1` (centres unmarked) [I-34]: the mortality at 100 ppm in [1] came out at 100%. In addition, the mortality at 4 mg/m2 in assay [2] and in [9] was 80 to 100% throughout. In addition, the mortality at 20 mg/m2 in assay [2], in assay [5] and in assay [9] was 80 to 100% each time. The pest or weed control at 4 pg in [3] worked out at 100%. The pest or weed control at 100 g/ha in [4] worked out at 100%. In addition, the mortality at 100 g/ha in assay [6] amounted to 100%. In addition, the pest or weed control at 5 µg/cm2 in assay [7] came out at 90%. This compound also yielded a mortality at 4 ppm in assay [8] of 100%.

For the compound `Cc1nc([C@H](C)NC(=O)c2csc(Cl)c2)n(-c2ncccn2)n1` [II-24], the mortality at 500 g/ha in assay [10] and in [13] (application rate 500 g/ha) was 90% in each case. The mortality at 4 mg/m2 in assay [2] lay within 80 to 100%; in [11] (surface concentration 4 mg/m^2, exposure 30 minutes), 80 to 100%; in assay [9], 80 to 100%. Moreover, the mortality at 20 mg/m2 in assay [2] fell in the range of 80 to 100%; in [11] (surface concentration 20 mg/m^2, exposure 30 minutes), 80 to 100%; in [9] it was 80 to 100%. Besides, the pest or weed control at 4 pg in [3] is 100%. Moreover, in assay [3], the pest or weed control at 0.02 mg was 100%. For the same compound, the pest or weed control at 500 g/ha in assay [4] came to 80%. For the same compound, in [12], the pest or weed control at 100 g/ha came to 100%. Further, the pest or weed control at 5 µg/cm2, 500 g/ha in assay [12] (application rate 5 μg/cm^2 (=500 g/ha)) was determined as 100%. Besides, the pest or weed control at 5 µg/cm2 in [7] worked out at 100%.

For `CCS(=O)(=O)c1cc(C(=O)N[C@@H](C)c2ncnn2-c2ccc(C#N)cn2)cc(C(F)(F)F)c1` [II-33], the mortality at 100 ppm in assay [1] was 100%. Also, in [2], the mortality at 4 mg/m2 fell in the range of 80 to 100%. Moreover, the mortality at 20 mg/m2 in assay [2] lay in the range of 80 to 100%. The pest or weed control at 4 pg in assay [3] amounted to 100%. The pest or weed control at 0.02 mg in assay [3] turned out to be 100%. The pest or weed control at 100 g/ha in assay [14] (application rate 1 pg/cm^2 (=100 g/ha)) worked out at 100%; in assay [4] it was 100%; in assay [12], 80%. For the same compound, the pest or weed control at 500 g/ha in assay [14] (application rate 5 pg/cm^2 (=500 g/ha)) and in assay [4] was 100% throughout. In addition, the mortality at 100 g/ha was 100% in assay [6], 100% in [15] and 90% in assay [13] (application rate 100 g/ha). Further, the results for the mortality at 500 g/ha in assay [6] (application rate 500 g/ha) and in [15] were 100% and 83%, respectively. Further, the mortality at 4 ppm in assay [8] was determined as 100%.

The values are drawn from patent publication US20260206761A1, “HETEROARYL-TRIAZOLE COMPOUNDS AS PESTICIDES” (Bayer Aktiengesellschaft, priority 2019, published 2026).
